Measurements published in patent US20040014142A1, “Differential diagnosis of neurodegeneration” (INNOGENETICS N.V., priority 1998, published 2004).

Columns and labels:
tau = details: in vivo
Description: Total tau was measured with the tau antigen test, using AT120 as capturing antibody and biotinylated HT7-BT2 as detector antibody (INNOTEST hTau antigen, Innogenetics, Gent, Belgium).
All patients underwent a thoroughly clinical evaluation at the time of diagnosis. Parental informed consent was available.
(§1) Lumbar punctures were performed for routine analysis either at baseline for diagnostic work-up or just prior to the IT administration of chemotherapy. Five ml of CSF was collected in different polypropylene tubes. One sample was centrifuged immediately at 1500 rpm for 2 minutes to eliminate cells and other insoluble material. The supernatant was stored at −70° C. for subsequent analysis. The number of freeze/thaw cycles was restricted to a minimum. Routine CSF measurement included cytology, protein concentration, glucose, etc.

neuromodulin = experiment: CSF neuromodulin level after chemotherapy of children (sandwich ELISA NM2/NM4); format: in vivo, human; details: child with manifest neurotoxicity and diplegia after MTX; exceeded highest standard
Description: Neuromodulin was also measured with a sandwich-type ELISA, using two epitope-specific monoclonal antibodies (NM2, NM4; Oestreicher et al., 1994). NM2 was selected as capturing antibody, biotinylated NM4 as detector antibody. Recombinant neuromodulin was used as standard.
as §1

mice = experiment: Titer after immunization of mice with α-synuclein (coating ELISA); format: in vivo
Description: Alpha-synuclein was purified from 3 liters of induced E. coli cultures resulting in purification of more than 10 mg α-synuclein (more than 90% pure estimated from coumassie and silverstained gels). The protein was injected into mice following several immunization schemes (Table 3). After 4 injections the titer to α-synuclein was evaluated in a coating ELISA.

[1] = animal 309 (m2), 1°: 50 μg α-synuclein, 2°: 5 μg peptide (IGP1463)

| Compound | CSF tau level (tau) [pg/mL] | CSF neuromodulin level (neuromodulin) [pg/mL] | Estimated titer in direct coating (mice; animal 308 (m4), 50 μg protein) | Estimated titer in direct coating (mice; [1]) | titer on peptide (mice; [1]) | Estimated titer in direct coating (mice; animal 309 (m4), 1°: 50 μg α-synuclein, 2°: 5 μg peptide (IGP1463)) | Estimated titer in direct coating (mice; animal 312 (m2), 5 μg α-synuclein protein) | Estimated titer in direct coating (mice; animal 312 (m3), 5 μg α-synuclein protein) | Estimated titer in direct coating (mice; animal 313 (m2), 1°: 50 μg protein, 2°: 5 μg protein) | titer to α-synuclein (serum dilution resulting in OD value twice the background) (mice; six mice, after 4 injections) |
| --- | --- | --- | --- | --- | --- | --- | --- | --- | --- | --- |
| CN(Cc1cnc2nc(N)nc(N)c2n1)c1ccc(C(=O)N[C@@H](CCC(=O)O)C(=O)O)cc1 [MTX, methotrexate] | > 1500 | > 8000 | – | – | – | – | – | – | – | – |
| α-synuclein | – | – | 250000 | 512000 | (titer of 2000 on peptide) | 128000 | 100000 | >512000 | 2500000 | above 100000 |
